# Experimental data published in patent US11401271B2, “Fused heterocyclic compound, pyrazole-ring-containing fused heterocyclic compound, agricultural composition containing thereof, and method of using the composition” (SOUTH CHINA AGRICULTURAL UNIVERSITY, priority 2017, dated 2022).
# Read-outs that look alike come from different tables or passages of the source.
# Tests used:
# Assay in all cases: whole plant or invertebrate
# Assay type in all cases: in vivo
# Aphis craccivora = settings: for Aphis craccivora Mortality (%) / Aphis craccivora Mortality (%) 500 ppm: 500 ppm, wingless adults; for Aphis craccivora Mortality (%): immersion 5 seconds, counted after 24 hours; for Aphis craccivora Mortality (%) 500 ppm: impregnation method, 24 hours; for mortality at 500 ppm: Aphis craccivora, 24 h, read-out: Aphis craccivora Mortality (%) 500 ppm
# Method: (3) Insecticidal Activity on Aphid Adults.
# Aphid is a homoptera pest with a piercing-sucking mouthpart and is a common vegetable pest. Aphis craccivora were taken as test objects and tested by using an impregnation method.
# Operation process: Samples were weighed accurately, and respectively added with 200 μL of dimethyl sulfoxide to prepare 10 g/L mother liquor which was diluted into a concentration of 500 ppm with an aqueous solution containing 0.05% of Tween-80 during the test. After the wingless Aphis craccivora adults stably sucked on bean sprouts, the wingless Aphis craccivora adults together with the bean sprouts were immersed into a liquid medicine with a concentration of 500 ppm, taken out after 5 seconds, air-dried naturally, transferred into a clean vessel, and fed at a constant temperature of 23° C. Each concentration was repeated 3 times, and an aqueous solution containing 0.05% of Tween-80 was used as a control group. After being treated for 24 hours, a number of dead Aphis craccivora was counted, and a mortality (%) was calculated according to a formula that mortality (%)=(number of live Aphis craccivora in the control group−number of treated live Aphis craccivora)/number of live Aphis craccivora in the control group*100%.
# Plutella xylostella = settings: for Plutella xylostella Mortality (%) / Plutella xylostella Mortality (%) 500 ppm: 500 ppm, 2nd-instar larvae, leaf immersion feeding; for mortality at 500 ppm: Plutella xylostella, read-out: Plutella xylostella Mortality (%) 500 ppm
# Method: (1) Insecticidal Activity on 2nd-Instar Larvae of Plutella xylostella.
# Plutella xylostella (L.) is a lepidoptera pest with a chewing mouthpart and is a common vegetable pest. The 2nd-instar larvae of Plutella xylostella were used as test objects and tested by using a leaf immersion feeding method.
# (§1) Operation process: Samples were weighed accurately, and respectively added with 200 μL of dimethyl sulfoxide to prepare 10 g/L mother liquor which was diluted into a concentration of 500 ppm with an aqueous solution containing 0.05% of Tween-80 during the test. A hole puncher with a diameter of 1.0 cm was used to make cleaned cabbage leaves into leaf discs. The leaf discs were immersed in a liquid medicine, taken out after 5 seconds, air-dried naturally, and transferred into a clean vessel. About 35 2nd-instar larvae of Plutella xylostella were put into the vessel and fed at a constant temperature of 28° C. Each concentration was repeated 3 times, and an aqueous solution containing 0.05% of Tween-80 was used as a control group. After being treated for 24 hours, a number of dead Plutella xylostella was counted, and a mortality (%) was calculated according to a formula that mortality (%)=(number of live larvae in the control group−number of treated live larvae)/number of live larvae in the control group*100%.
# Solenopsis invicta = settings: water test tube poison-feeding; for Solenopsis invicta Mortality (%) 24 h / Solenopsis invicta Mortality (%) 72 h / Solenopsis invicta Mortality (%) 100 ppm 24 h / Solenopsis invicta Mortality (%) 100 ppm 72 h: 100 ppm; for mortality at 100 ppm: Solenopsis invicta
# Method: (4) Insecticidal Activity on Solenopsis invicta.
# As a hymenoptera pests and a social insect, Solenopsis invicta is one of the most destructive invasive organisms. Solenopsis invicta were used as test objects and tested by using a water test tube poison-feeding method.
# Operation process: Samples were weighed accurately, and respectively added with 200 μL of dimethyl sulfoxide to prepare 10 g/L mother liquor which was diluted into a concentration of 100 ppm with a mixed aqueous solution containing 0.05% of Tween-80 and 5% of honey during the test. […] The raising test tube was placed in a raising box horizontally, and a small amount of ham sausages were added to the raising test tube as food to raise the Solenopsis invicta at a constant temperature of 25° C. After being treated for 24 hours and 72 hours, a number of live Solenopsis invicta and a number of dead Solenopsis invicta were counted, and a mortality (%) was calculated according to a formula that mortality (%)=(number of live Solenopsis invicta in the control group−number of treated live Solenopsis invicta)/number of live Solenopsis invicta in the control group*100%.
# Spodoptera exigua = settings: for Spodoptera exigua Mortality (%) / Spodoptera exigua Mortality (%) 500 ppm: 500 ppm, 2nd-instar larvae, leaf immersion feeding; for Spodoptera exigua Mortality (%) 500 ppm: 24 hours; for mortality at 500 ppm: Spodoptera exigua, 24 h, read-out: Spodoptera exigua Mortality (%) 500 ppm
# Method: (2) Insecticidal Activity on 2nd-Instar Larvae of Spodoptera exigua.
# Spodoptera exigua is a lepidoptera pest with a chewing mouthpart and is a common vegetable pest. The 2nd-instar larvae of Spodoptera exigua were used as test objects and tested by using a leaf immersion feeding method.
# as §1, with “μL,” for “μL”, “2nd -instar” for “2nd-instar”, “Spodoptera exigua” for “Plutella xylostella”, “group −number” for “group−number”, “group * 100%.” for “group*100%.”
# [1] = 24 h, read-out: Solenopsis invicta Mortality (%) 100 ppm 24 h, 100 ppm, 24 h
# [2] = 72 h, read-out: Solenopsis invicta Mortality (%) 100 ppm 72 h, 100 ppm, 72 h
SMILES,Aphis craccivora Mortality (%) (Aphis craccivora),Plutella xylostella Mortality (%) (Plutella xylostella),Solenopsis invicta Mortality (%) 24 h (Solenopsis invicta; 24 h) [%],Solenopsis invicta Mortality (%) 72 h (Solenopsis invicta; 72 h) [%],Spodoptera exigua Mortality (%) (Spodoptera exigua),also measured
CC(=O)C1(CC(=O)C(F)(F)F)Nc2c([S+]([O-])C(F)(F)F)c(C#N)nn2-c2cncc(Cl)c21 (stereo not drawn) [b-37],99,86,20,94,90,
O=C(C1Nc2c([S+]([O-])C(F)(F)F)c(C(F)(F)F)nn2-c2cncc(Cl)c21)C(F)(F)F (stereo not drawn) [b-94],100,100,20,100,90,
CC(=O)CC1(C(C)=O)Nc2c([S+]([O-])C(F)(F)F)c(C#N)nn2-c2c(Cl)cc(C(F)(F)F)cc21 (stereo not drawn) [d-46],100,95,14,90,90,
CC=CC1Nc2c([S+]([O-])C(F)(F)F)c(C(F)(F)F)nn2-c2ncc(C(F)(F)F)cc21 (stereo not drawn) [a-109],,,,,,Aphis craccivora Mortality (%) 500 ppm (Aphis craccivora): 100%; Plutella xylostella Mortality (%) 500 ppm (Plutella xylostella): 95%; Solenopsis invicta Mortality (%) 100 ppm 24 h (Solenopsis invicta; 24 h): 20%; Solenopsis invicta Mortality (%) 100 ppm 72 h (Solenopsis invicta; 72 h): 90%; Spodoptera exigua Mortality (%) 500 ppm (Spodoptera exigua): 89%
CNC(=O)Nc1cc2n(n1)-c1cnccc1C(F)(CC(F)(F)F)N2 (stereo not drawn) [Compound A41],,,,,,mortality at 500 ppm (Aphis craccivora): 100%; mortality at 500 ppm (Plutella xylostella): 100%; mortality at 100 ppm (Solenopsis invicta; [1]): 24%; mortality at 100 ppm (Solenopsis invicta; [2]): 100%; mortality at 500 ppm (Spodoptera exigua): 100%
N#Cc1nn2c(c1[S+]([O-])C(F)(F)F)NC(Cl)c1c(Cl)cncc1-2 (stereo not drawn) [b-80],100,95,14,90,90,
COC(=O)C1(CC(=O)OCC(F)(F)F)Nc2c([S+]([O-])C(F)(F)F)c(C#N)nn2-c2cc(C(F)(F)F)cc(Cl)c21 (stereo not drawn) [c-19],100,100,20,100,100,
COC(=O)C1(CC(=O)OCC(F)(F)F)Nc2c([S+]([O-])C(F)(F)F)c(C#N)nn2-c2c(Cl)cc(C(F)(F)F)cc21 (stereo not drawn) [d-27],100,100,14,100,100,
N#Cc1nn2c(c1OC(F)(F)F)NC(C#N)c1c(Cl)cncc1-2 (stereo not drawn) [b-118],100,99,14,99,91,
CCOC(=O)C1(CC(=O)OC)Nc2c([S+]([O-])C(F)(F)F)c(C#N)nn2-c2c(C(F)(F)F)ccc(Cl)c21 (stereo not drawn) [e-6],100,100,34,100,100,
COC(=O)CC1(C(=O)OC)Nc2c(Cl)c(C#N)nn2-c2ncc(C(F)(F)F)cc21 (stereo not drawn) [a-133],,,,,,Aphis craccivora Mortality (%) 500 ppm (Aphis craccivora): 100%; Plutella xylostella Mortality (%) 500 ppm (Plutella xylostella): 100%; Solenopsis invicta Mortality (%) 100 ppm 24 h (Solenopsis invicta; 24 h): 24%; Solenopsis invicta Mortality (%) 100 ppm 72 h (Solenopsis invicta; 72 h): 100%; Spodoptera exigua Mortality (%) 500 ppm (Spodoptera exigua): 100%
N#Cc1nn2c(c1[S+]([O-])C(F)(F)F)NC(C(=O)C(F)(F)F)c1cc(C(F)(F)F)cnc1-2 (stereo not drawn) [a-71],,,,,,Aphis craccivora Mortality (%) 500 ppm (Aphis craccivora): 100%; Plutella xylostella Mortality (%) 500 ppm (Plutella xylostella): 100%; Solenopsis invicta Mortality (%) 100 ppm 24 h (Solenopsis invicta; 24 h): 24%; Solenopsis invicta Mortality (%) 100 ppm 72 h (Solenopsis invicta; 72 h): 100%; Spodoptera exigua Mortality (%) 500 ppm (Spodoptera exigua): 99%
CNC(=O)CC1Nc2c(OC(F)(F)F)c(C#N)nn2-c2c(Cl)cc(C(F)(F)F)cc21 (stereo not drawn) [d-133],100,70,21,95,86,
COC(=O)CC1(C(=O)OC)Nc2c([S+]([O-])C(F)(F)F)c(C#N)nn2-c2ncc(C(F)(F)F)cc21 (stereo not drawn) [a-1],,,,,,Aphis craccivora Mortality (%) 500 ppm (Aphis craccivora): 100%; Plutella xylostella Mortality (%) 500 ppm (Plutella xylostella): 100%; Solenopsis invicta Mortality (%) 100 ppm 24 h (Solenopsis invicta; 24 h): 20%; Solenopsis invicta Mortality (%) 100 ppm 72 h (Solenopsis invicta; 72 h): 100%; Spodoptera exigua Mortality (%) 500 ppm (Spodoptera exigua): 100%
CCCCOC(=O)CC1(C(=O)OCCCC)Nc2c([S+]([O-])C(F)(F)F)c(C#N)nn2-c2c(Cl)cc(C(F)(F)F)cc21 (stereo not drawn) [d-72],99,90,26,76,85,
COC(=O)C1Nc2c([S+]([O-])C(F)(F)F)c(C(F)(F)F)nn2-c2ncc(C(F)(F)F)cc21 (stereo not drawn) [a-87],,,,,,Aphis craccivora Mortality (%) 500 ppm (Aphis craccivora): 100%; Plutella xylostella Mortality (%) 500 ppm (Plutella xylostella): 96%; Solenopsis invicta Mortality (%) 100 ppm 24 h (Solenopsis invicta; 24 h): 20%; Solenopsis invicta Mortality (%) 100 ppm 72 h (Solenopsis invicta; 72 h): 97%; Spodoptera exigua Mortality (%) 500 ppm (Spodoptera exigua): 100%
C=CC1(CC(F)(F)F)Nc2c(Br)c(C#N)nn2-c2c(Cl)cc(C(F)(F)F)cc21 (stereo not drawn) [Compound C6],,,,,,mortality at 500 ppm (Aphis craccivora): 100%; mortality at 500 ppm (Plutella xylostella): 100%; mortality at 100 ppm (Solenopsis invicta; [1]): 44%; mortality at 100 ppm (Solenopsis invicta; [2]): 100%; mortality at 500 ppm (Spodoptera exigua): 100%
N#CCC1(C(F)(F)F)Nc2c([S+]([O-])C(F)(F)F)c(C#N)nn2-c2c(Cl)cc(C(F)(F)F)cc21 (stereo not drawn) [d-70],99,91,20,98,90,
COC(=O)CC1Nc2c([S+]([O-])C(F)(F)F)c(C(F)(F)F)nn2-c2cncc(Cl)c21 (stereo not drawn) [b-88],100,100,25,100,100,
CC(=O)C1(CC(=O)C(F)(F)F)Nc2c([S+]([O-])C(F)(F)F)c(C#N)nn2-c2cc(C(F)(F)F)cc(Cl)c21 (stereo not drawn) [c-47],100,90,35,99,89,
N#Cc1nn2c(c1[S+]([O-])C(F)(F)F)NC(C#N)c1cc(C(F)(F)F)cnc1-2 (stereo not drawn) [a-72],,,,,,Aphis craccivora Mortality (%) 500 ppm (Aphis craccivora): 100%; Plutella xylostella Mortality (%) 500 ppm (Plutella xylostella): 96%; Solenopsis invicta Mortality (%) 100 ppm 24 h (Solenopsis invicta; 24 h): 20%; Solenopsis invicta Mortality (%) 100 ppm 72 h (Solenopsis invicta; 72 h): 91%; Spodoptera exigua Mortality (%) 500 ppm (Spodoptera exigua): 89%
